Measurements published in patent US20220313698A1, “MODULATORS OF CYSTIC FIBROSIS TRANSMEMBRANE CONDUCTANCE REGULATOR” (Vertex Pharmaceuticals Incorporated, priority 2019, published 2022).

Molecular target: CFTR-mediated chloride transport (Homo sapiens, UniProt P13569)
Assay: Corrector Assay A - membrane potential dye assay (enteroid cells)
Conditions: for Corrector Assay A % activity: % of chloride transport of triple combination control (1 μM (14S)-dispiro macrocycle + 3 μM tezacaftor + 300 nM ivacaftor); for EC50: read-out: Corrector Assay A EC50, human intestinal enteroid cells, 18-24 h incubation, acute 10 μM forskolin + 300 nM ivacaftor

Row | Corrector Assay A % activity | EC50 [nM] | SMILES
1 | +++ (+++ is >60%) | < 1000 | CC(C)(C)c1ccc2c(n1)N1C[C@@H](CC[C@@H](c3cc(C4=CCOCC4)ccn3)Nc3cccc(n3)S(=O)(=O)NC2=O)CC1(C)C (single isomer, unassigned) [Compound 126]
2 | +++ (+++ is >60%) | < 1000 | CC(C)(C)c1ccc2c(n1)N1C[C@@H](CCC(c3cc(Cl)ccn3)Nc3cccc(n3)S(=O)(=O)NC2=O)CC1(C)C (single isomer, unassigned) [Compound 127]
3 | +++ (+++ is >60%) | < 1000 | CC(C)(C)c1ccc2c(n1)N1C[C@@H](CCC(c3cc(Cl)ccn3)Nc3cccc(n3)S(=O)(=O)NC2=O)CC1(C)C (single isomer, unassigned) [Compound 128]
4 | ++ (++ is 30-60%) | < 1000 | CC(C)(C)c1ccc2c(n1)N1C[C@@H](CCC(c3cc(C#N)ccn3)Nc3cccc(n3)S(=O)(=O)NC2=O)CC1(C)C (single isomer, unassigned) [Compound 143]
5 | +++ (+++ is >60%) | < 1000 | CC(C)(C)c1ccc2c(n1)N1C[C@@H](CCC(c3cc(C#N)ccn3)Nc3cccc(n3)S(=O)(=O)NC2=O)CC1(C)C (single isomer, unassigned) [Compound 144]
6 | ++ (++ is 30-60%) | < 1000 | CC(C)(C)c1ccc2c(n1)N1C[C@@H](CCC(c3ccc(CCC#N)cn3)Nc3cccc(n3)S(=O)(=O)NC2=O)CC1(C)C (single isomer, unassigned) [Compound 145]
7 | +++ (+++ is >60%) | < 1000 | CC(C)(C)c1ccc2c(n1)N1C[C@@H](CCC(c3ccc(C4CCOCC4)cn3)Nc3cccc(n3)S(=O)(=O)NC2=O)CC1(C)C (single isomer, unassigned) [Compound 155]
8 | ++ (++ is 30-60%) | < 1000 | CC(C)(C)c1ccc2c(n1)N1C[C@@H](CCC(c3ccc(Br)cn3)Nc3cccc(n3)S(=O)(=O)NC2=O)CC1(C)C (single isomer, unassigned) [Compound 171]
9 | +++ (+++ is >60%) | < 1000 | CC(C)(C)c1ccc2c(n1)N1C[C@@H](CCC(c3ccc(Br)cn3)Nc3cccc(n3)S(=O)(=O)NC2=O)CC1(C)C (single isomer, unassigned) [Compound 172]
10 | + (+ is <30%) | < 1000 | CC(C)(C)c1cccc(C2CC[C@@H]3CN(c4nc(C(C)(C)C)ccc4C(=O)NS(=O)(=O)c4cccc(n4)N2)C(C)(C)C3)n1 (single isomer, unassigned) [Compound 178]
11 | ++ (++ is 30-60%) | < 1000 | CC(C)(C)c1cccc(C2CC[C@@H]3CN(c4nc(C(C)(C)C)ccc4C(=O)NS(=O)(=O)c4cccc(n4)N2)C(C)(C)C3)n1 (single isomer, unassigned) [Compound 179]
12 | +++ (+++ is >60%) | < 1000 | CC(C)(C)c1ccc(C2CC[C@@H]3CN(c4nc(C(C)(C)C)ccc4C(=O)NS(=O)(=O)c4cccc(n4)N2)C(C)(C)C3)nc1 (single isomer, unassigned) [Compound 186]
13 | ++ (++ is 30-60%) | < 1000 | CC(C)(C)c1ccc(C2CC[C@@H]3CN(c4nc(C(C)(C)C)ccc4C(=O)NS(=O)(=O)c4cccc(n4)N2)C(C)(C)C3)nc1 (single isomer, unassigned) [Compound 187]
14 | ++ (++ is 30-60%) | < 1000 | CC(C)(C)c1ccc2c(n1)N1C[C@@H](CCC(c3ccc(CN)cn3)Nc3cccc(n3)S(=O)(=O)NC2=O)CC1(C)C (single isomer, unassigned) [Compound 197]
15 | +++ (+++ is >60%) | < 1000 | CC(C)(C)c1ccc2c(n1)N1C[C@@H](CCC(c3ccc(C#N)cn3)Nc3cccc(n3)S(=O)(=O)NC2=O)CC1(C)C (single isomer, unassigned) [Compound 205]
16 | +++ (+++ is >60%) | 1000 to 3000 | CC(C)(C)c1ccc2c(n1)N1C[C@@H](CC[C@@H](c3ncccn3)Nc3cccc(n3)S(=O)(=O)NC2=O)CC1(C)C (single isomer, unassigned) [Compound 206]
17 | +++ (+++ is >60%) | < 1000 | CC(C)(C)c1ccc2c(n1)N1C[C@@H](CC[C@@H](c3ncccn3)Nc3cccc(n3)S(=O)(=O)NC2=O)CC1(C)C (single isomer, unassigned) [Compound 207]
18 | +++ (+++ is >60%) | < 1000 | CC(C)(C)c1ccc2c(n1)N1C[C@@H](CCC(c3ccc(Cl)cn3)Nc3cccc(n3)S(=O)(=O)NC2=O)CC1(C)C (single isomer, unassigned) [Compound 208]
19 | ++ (++ is 30-60%) | < 1000 | CC(C)(C)c1ccc2c(n1)N1C[C@@H](CCC(c3ccc(Cl)cn3)Nc3cccc(n3)S(=O)(=O)NC2=O)CC1(C)C (single isomer, unassigned) [Compound 209]

Row | Corrector Assay A % activity | EC50 [nM] | SMILES
20 | +++ (+++ is >60%) | < 1000 | CC1(C)OCCc2cc3c(nc21)N1C[C@@H](CCC(c2ccccn2)Nc2cccc(n2)S(=O)(=O)NC3=O)CC1(C)C (single isomer, unassigned) [Compound 212]
21 | ++ (++ is 30-60%) | 1000 to 3000 | CC1(C)OCCc2cc3c(nc21)N1C[C@@H](CCC(c2ccccn2)Nc2cccc(n2)S(=O)(=O)NC3=O)CC1(C)C (single isomer, unassigned) [Compound 213]
22 | + (+ is <30%) |  | CC(C)(C)c1ccc2c(n1)N1C[C@@H](CC[C@@H](c3ccncn3)Nc3cccc(n3)S(=O)(=O)NC2=O)CC1(C)C (single isomer, unassigned) [Compound 216]
23 | ++ (++ is 30-60%) | < 1000 | CC(C)(C)c1ccc2c(n1)N1C[C@@H](CC[C@@H](c3ccncn3)Nc3cccc(n3)S(=O)(=O)NC2=O)CC1(C)C (single isomer, unassigned) [Compound 217]
24 | ++ (++ is 30-60%) | < 1000 | CC(C)(C)c1ccc2c(n1)N1C[C@@H](CC[C@@H](C3CCN(c4ncccn4)CC3)Nc3cccc(n3)S(=O)(=O)NC2=O)CC1(C)C (single isomer, unassigned) [Compound 219]
25 | +++ (+++ is >60%) | 1000 to 3000 | COCCN1CCC2(CC1)CC(NC(=O)C1CC[C@@H]3CN(c4nc(C(C)(C)C)ccc4C(=O)NS(=O)(=O)c4cccc(n4)N1)C(C)(C)C3)C2 (single isomer, unassigned) [Compound 220]
26 | ++ (++ is 30-60%) | > 3000 | CC(C)(C)c1ccc2c(n1)N1C[C@@H](CCC(C(=O)NC3CC4(CCNCC4)C3)Nc3cccc(n3)S(=O)(=O)NC2=O)CC1(C)C (single isomer, unassigned) [Compound 222]
27 | +++ (+++ is >60%) | < 1000 | COC(=O)C1CC[C@@H]2CN(c3nc(C(C)(C)C)ccc3C(=O)NS(=O)(=O)c3cccc(n3)N1)C(C)(C)C2 (single isomer, unassigned) [Compound 224]
28 | ++ (++ is 30-60%) | < 1000 | COC(=O)C1CC[C@@H]2CN(c3nc(C(C)(C)C)ccc3C(=O)NS(=O)(=O)c3cccc(n3)N1)C(C)(C)C2 (single isomer, unassigned) [Compound 225]
29 | +++ (+++ is >60%) | < 1000 | CC(C)(C)OC(=O)N1CCC2(CC1)CC(NC(=O)C1CC[C@@H]3CN(c4nc(C(C)(C)C)ccc4C(=O)NS(=O)(=O)c4cccc(n4)N1)C(C)(C)C3)C2 (single isomer, unassigned) [Compound 226]
30 | ++ (++ is 30-60%) | < 1000 | CC(=O)N1CCC([C@@H]2CC[C@@H]3CN(c4nc(C(C)(C)C)ccc4C(=O)NS(=O)(=O)c4cccc(n4)N2)C(C)(C)C3)CC1 (single isomer, unassigned) [Compound 229]
31 | +++ (+++ is >60%) | > 3000 | CC(C)(C)c1ccc2c(n1)N1C[C@@H](CCC(C(=O)O)Nc3cccc(n3)S(=O)(=O)NC2=O)CC1(C)C (single isomer, unassigned) [Compound 230]
32 | + (+ is <30%) | > 3000 | CC(C)(C)c1ccc2c(n1)N1C[C@@H](CCC(C(=O)O)Nc3cccc(n3)S(=O)(=O)NC2=O)CC1(C)C (single isomer, unassigned) [Compound 231]
33 | +++ (+++ is >60%) | < 1000 | CC(C)(C)c1ccc2c(n1)N1C[C@@H](CCC(c3ccncc3)Nc3cccc(n3)S(=O)(=O)NC2=O)CC1(C)C (single isomer, unassigned) [Compound 232]
34 | ++ (++ is 30-60%) | < 1000 | CC(C)(C)c1ccc2c(n1)N1C[C@@H](CCC(c3ccncc3)Nc3cccc(n3)S(=O)(=O)NC2=O)CC1(C)C (single isomer, unassigned) [Compound 233]
35 | ++ (++ is 30-60%) | < 1000 | CC(C)(C)c1ccc2c(n1)N1C[C@@H](CC[C@@H](C3CCCCC3)Nc3cccc(n3)S(=O)(=O)NC2=O)CC1(C)C (single isomer, unassigned) [Compound 234]
36 | ++ (++ is 30-60%) | < 1000 | CC(C)(C)c1ccc2c(n1)N1C[C@@H](CC[C@@H](C3CCCCC3)Nc3cccc(n3)S(=O)(=O)NC2=O)CC1(C)C (single isomer, unassigned) [Compound 235]
37 | ++ (++ is 30-60%) | 1000 to 3000 | CN(C)CC(=O)N1CCC([C@@H]2CC[C@@H]3CN(c4nc(C(C)(C)C)ccc4C(=O)NS(=O)(=O)c4cccc(n4)N2)C(C)(C)C3)CC1 (single isomer, unassigned) [Compound 237]
38 | + (+ is <30%) | > 3000 | CC(C)(C)c1ccc2c(n1)N1C[C@@H](CC[C@@H](C3CCN(CCC(F)(F)F)CC3)Nc3cccc(n3)S(=O)(=O)NC2=O)CC1(C)C (single isomer, unassigned) [Compound 239]
